Where a name gives a salt, the structure may show the parent alone.
Biological target: T1, recombinant human SIRT1 (Homo sapiens, UniProt Q96EB6)
T1 sequence (Q96EB6 1-747): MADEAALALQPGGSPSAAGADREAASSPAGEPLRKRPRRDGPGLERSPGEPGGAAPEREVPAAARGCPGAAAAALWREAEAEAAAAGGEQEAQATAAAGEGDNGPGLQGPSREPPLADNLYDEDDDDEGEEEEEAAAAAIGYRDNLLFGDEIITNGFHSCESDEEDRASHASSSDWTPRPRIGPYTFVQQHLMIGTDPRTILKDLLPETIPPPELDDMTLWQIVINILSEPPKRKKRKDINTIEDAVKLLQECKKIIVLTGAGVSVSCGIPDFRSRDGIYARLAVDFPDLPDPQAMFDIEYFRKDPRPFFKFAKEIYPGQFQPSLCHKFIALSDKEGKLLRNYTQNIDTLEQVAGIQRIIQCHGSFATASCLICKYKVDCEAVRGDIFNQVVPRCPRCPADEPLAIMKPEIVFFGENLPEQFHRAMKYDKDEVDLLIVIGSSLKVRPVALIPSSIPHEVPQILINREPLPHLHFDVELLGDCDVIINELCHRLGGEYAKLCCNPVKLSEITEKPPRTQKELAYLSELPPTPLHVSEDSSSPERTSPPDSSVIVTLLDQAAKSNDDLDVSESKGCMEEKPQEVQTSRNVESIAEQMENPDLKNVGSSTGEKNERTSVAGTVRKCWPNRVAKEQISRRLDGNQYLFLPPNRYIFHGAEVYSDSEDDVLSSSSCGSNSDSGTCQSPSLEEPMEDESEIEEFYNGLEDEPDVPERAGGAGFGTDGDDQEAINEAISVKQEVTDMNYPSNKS
Assay: SIRT1 fluorescent deacetylation assay (p53-382 acetylated peptide substrate)
Format: biochemical
Conditions: for Ratio to Control Rate Mean ± SE: 100 μM, 25 μM NAD+, 25 μM p53-382 acetylated peptide

[1] = Supplementary Table 6, free radical protective compounds
[2] = Supplementary Table 4, isoflavones, flavanones, anthocyanidins
[3] = Supplementary Table 3, flavones part II
[4] = Supplementary Table 2, flavones part I

SMILES: Cc1c(C)c2c(c(C)c1O)CCC(C)(CN1CCN(c3cc(N4CCCC4)nc(N4CCCC4)n3)CC1)O2.Cl.Cl (single isomer, unassigned; (-)) [Compound U-83836E, (−)-2-((4-(2,6-di-1-Pyrrolidinyl-4-pyrimidinyl)-1-piperazinyl)methyl)-3,4-dihydro-2,5,7,8-tetramethyl-2H-1-benzopyran-6-ol-2HCl, reference compound]
- Ratio to Control Rate Mean ± SE [1]: 1.030 ± 0.055

SMILES: O=C(/C=C/c1ccc(O)c(O)c1)c1c(O)cc(O)cc1O [3,4,2′,4′,6′-Pentahydroxychalcone]
- Ratio to Control Rate Mean ± SE (Supplementary Table 1, stilbenes and chalcones): 2.80 ± 0.32

SMILES: Oc1ccc(/C=C/c2ccccc2)cc1O [3,4-Dihydroxy-trans-stilbene]
- Ratio to Control Rate Mean ± SE (Table 12, resveratrol analogs): 1.64 ± 0.10

SMILES: COc1ccc(/C=C/c2ccccc2)cc1OC [3,4-Dimethoxy-trans-stilbene]
- Ratio to Control Rate Mean ± SE (Table 12, resveratrol analogs): 1.127 ± 0.019

SMILES: O=C1c2c(O)cc(O)cc2OC(c2ccc(O)c(O)c2)C1O (centres unmarked) [3,5,7,3′,4′-Pentahydroxyflavanone]
- Ratio to Control Rate Mean ± SE [2]: 1.97 ± 0.22

SMILES: O=c1c(O)c(-c2cccc(O)c2O)oc2ccc(O)cc12 [3,6,2′,3′-Tetrahydroxyflavone]
- Ratio to Control Rate Mean ± SE [3]: 1.74 ± 0.27

SMILES: O=c1c(O)c(-c2ccc(O)cc2O)oc2ccc(O)cc12 [3,6,2′,4′-Tetrahydroxyflavone]
- Ratio to Control Rate Mean ± SE [4]: 2.10 ± 0.22

SMILES: O=c1c(O)c(-c2ccc(O)c(O)c2)oc2ccc(O)cc12 [3,6,3′,4′-Tetrahydroxyflavone]
- Ratio to Control Rate Mean ± SE [4]: 5.45 ± 0.57

SMILES: O=c1c(O)c(-c2cc(O)c(O)c(O)c2)oc2cc(O)ccc12 [3,7,3′,4′,5′-Pentahydroxyflavone]
- Ratio to Control Rate Mean ± SE [3]: 0.826 ± 0.074

SMILES: Oc1cccc(/C=C/c2ccccc2)c1 [3-Hydroxystilbene]
- Ratio to Control Rate Mean ± SE (Table 11, resveratrol analogs): 2.357 ± 0.074

SMILES: Oc1ccc(/C=C/c2ccccc2)cc1 [4-Hydroxy-trans-stilbene]
- Ratio to Control Rate Mean ± SE (Table 13, resveratrol analogs): 0.943 ± 0.039

SMILES: COc1ccc(/C=C/c2ccccc2)cc1 [4-Methoxy-trans-stilbene]
- Ratio to Control Rate Mean ± SE (Table 13, resveratrol analogs): 0.840 ± 0.089

SMILES: O=c1cc(-c2ccc(O)cc2)oc2ccccc12 [4′-Hydroxyflavone]
- Ratio to Control Rate Mean ± SE [3]: 1.73 ± 0.12

SMILES: O=c1cc(-c2ccc(O)cc2)oc2cccc(O)c12 [5,4′-Dihydroxyflavone]
- Ratio to Control Rate Mean ± SE [3]: 1.56 ± 0.15

SMILES: O=c1cc(-c2cc(O)c(O)c(O)c2)oc2cc(O)cc(O)c12 [5,7,3′4′,5′-Pentahydroxyflavone]
- Ratio to Control Rate Mean ± SE [4]: 6.05 ± 0.98

SMILES: O=c1c(-c2ccc(O)cc2)coc2cc(O)cc(O)c12 [5,7,4′-Trihydroxyisoflavone]
- Ratio to Control Rate Mean ± SE [2]: 1.109 ± 0.026
- SIRT1 stimulating activity (in words) (polyphenol screen): absence of activity

SMILES: O=c1cc(-c2ccccc2)oc2cc(O)cc(O)c12 [5,7-Dihydroxyflavone]
- Ratio to Control Rate Mean ± SE [3]: 1.51 ± 0.18

SMILES: O=c1cc(-c2ccccc2)oc2cccc(O)c12 [5-Hydroxyflavone]
- Ratio to Control Rate Mean ± SE [3]: 1.22 ± 0.19

SMILES: O=c1cc(-c2ccc(O)cc2)oc2cc(O)c(O)c(O)c12 [6-Hydroxyapigenin, 5,6,7,4′-Tetrahydroxyflavone]
- Ratio to Control Rate Mean ± SE [4]: 3.06 ± 0.29

SMILES: O=c1cc(-c2cc(O)c(O)c(O)c2)oc2cc(O)ccc12 [7,3′,4′,5′-Tetrahydroxyflavone]
- Ratio to Control Rate Mean ± SE [4]: 3.62 ± 0.56

SMILES: O=c1cc(-c2ccc(O)cc2)oc2cc(O)ccc12 [7,4′-Dihydroxyflavone]
- Ratio to Control Rate Mean ± SE [4]: 1.91 ± 0.17

SMILES: O=c1c(O)c(-c2ccc(O)cc2)oc2c(O)c(O)ccc12 [7,8,3,4′-Tetrahydroxyflavone]
- Ratio to Control Rate Mean ± SE [3]: 1.91

SMILES: O=C(O[C@@H]1Cc2c(O)cc(O)cc2O[C@@H]1c1cc(O)c(O)c(O)c1)c1cc(O)c(O)c(O)c1 [(−)-Epigallocatechin Gallate]
- Ratio to Control Rate Mean ± SE (Supplementary Table 5, catechins): 0.32 ± 0.12

SMILES: Nc1c(Br)cc(Br)cc1CN[C@H]1CC[C@H](O)CC1 [Ambroxol, trans-4-(2-Amino-3,5-dibromobenzylamino)cyclohexane.HCl, reference compound]
- Ratio to Control Rate Mean ± SE [1]: 1.075 ± 0.0026

SMILES: O=c1cc(-c2ccc(O)cc2)oc2cc(O)cc(O)c12 [Apigenin, 5,7,4′-Trihydroxyflavone]
- Ratio to Control Rate Mean ± SE [4]: 2.77 ± 0.40

Source: patent publication US20060084135A1, “Compositions for manipulating the lifespan and stress response of cells and organisms” (priority 2003, published 2006)
